The numbers were not newly measured in patent publication US20250108011A1, “ORAL DOSAGE FORMS OF A […] ACTIVE ACID-LABILE SALT AND METHODS AND USES RELATED THERETO” (Rijksuniversiteit Groningen, priority 2022, published 2025), which cites them from elsewhere.

For series [1], the system named is pregnant Dahl salt-sensitive rats. The conditions noted are these: ref [23].
Another series relates to hypercalciuric rats. The conditions noted are these: oral, ref [22].
For the next series, the system named is calciphylaxis. Particulars: oral maintenance therapy, ref [21].

Consider `O=S([O-])([O-])=S.[Na+].[Na+]` [STS, Sodium thiosulfate], for which the “effect on blood pressure” value in series [1] is recorded as “antihypertensive effects”. Besides, the effect on nephrolithiasis result with hypercalciuric rats is on record as “reduce calcium phosphate nephrolithiasis”. The “tolerability of oral administration” value in the series with calciphylaxis is “well tolerated with no reported side effects”. In addition, the “renal effect of oral STS as a single treatment regimen” value in the series with hypertensive rats (oral, ref [19]) is reported as “renoprotective effects”. Moreover, the “effect as a single treatment regimen in hypertensive rats” value in the series on hypertensive rats (refs [17,18]) is “reduced blood pressure, proteinuria, kidney and heart damage”. In addition, the “cardiac effect of oral STS” value in the series with hypertensive rats (same model, ref [20]) is “Cardioprotective effects”.
